How the values were obtained:
[1] = Kinematic viscosity at 25° C. (ASTM D-445-97); type: physicochemical
Method: Kinematic viscosity was tested at 25° C. using ASTM (American Society of Testing and Materials, West Conshohocken, Pa., United States of America) Official Method No. D-445-97 (1997), the contents of which are incorporated herein by reference. Color was measured using ASTM D-1209-97 (1997), acid value was determined using ASTM D-972-95 (1995) and hydroxyl number was determined using a modified version of AOCS (American Oil Chemists Society, Champaign, Ill., United States of America) Official Method No. Cd-13-60 (1997), the contents of which are incorporated herein by reference. Odor was determined using a subjective olfactory assessment.

[2] = Spreading characteristics on WHATMAN filter paper (50 microliters); type: physicochemical; conditions: for Spreadibility (1 minute) / Spreadibility (3 minutes) / Spreadibility (5 minutes): 50 microliters on filter paper
Method: The spreading characteristics of fluid used in personal care products are an effective predictor of “skin feel.” To test the spreading characteristics a four inch WHATMAN® filter paper was positioned horizontally over an eight ounce jar. Fifty microliters of each product were then pipetted onto the center of the filter paper. The spreading area of the liquid was then measured at intervals of one, three, and five minutes. Faster spreading products will have a higher spreading area at each time interval.

SMILES	Viscosity at 25° C. [1] [cSt]	Spreadibility (1 minute) [2] [cm]	Spreadibility (3 minutes) [2] [cm]	Spreadibility (5 minutes) [2] [cm]	Spreadibility (1 minute) ([2]; listed as D5 Fluid) [cm]	Spreadibility (3 minutes) ([2]; listed as D5 Fluid) [cm]	Spreadibility (5 minutes) ([2]; listed as D5 Fluid) [cm]	viscosity ([1]; stated in description) [centistokes]	spreading (in words) ([2]; stated in description)
CCCCCC(=O)OCCOCCOC(=O)CCCCC [DEGDH, diethylene glycol dihexanoate]	14.4	2.98	3.43	3.68	–	–	–	–	–
C[Si]1(C)O[Si](C)(C)O[Si](C)(C)O[Si](C)(C)O1 [Example D4, reference compound]	–	3.10	3.50	3.60	–	–	–	–	–
C[Si]1(C)O[Si](C)(C)O[Si](C)(C)O[Si](C)(C)O[Si](C)(C)O1 [Example D5, reference compound]	4.0	2.90	3.40	3.60	2.9	3.4	3.6	–	–
CCC(CC)C(=O)OCC(C)(C)COC(=O)C(CC)CC [ND2EB, neopentyl glycol di-2-ethylbutyrate]	7.6	3.00	3.43	3.63	–	–	–	–	–
CC(C)C(=O)OCC(C)(C)COC(=O)C(C)C [NDI]	3.5	3.18	3.63	3.88	–	–	–	–	–
CCCCC(=O)OCC(C)(C)COC(=O)CCCC [NDP, neopentyl glycol dipentanoate]	5.1	3.08	3.48	3.85	–	–	–	5.1	rapidly spreading

From patent US20050260150A1, “Polyol polyester-containing personal care products that do not contain low viscosity silicone fluids” (INOLEX INVESTMENT CORP., priority 2004, published 2005)
